According to patent US20260097126A1, “PHARMACEUTICAL FORMULATIONS AND METHODS FOR THE TREATMENT OF METABOLIC AND LIVER DISORDERS” (priority 2022, published 2026):

Key:
[1] = target: T1, GLP-1 receptor (Homo sapiens, UniProt P43220); test: TagLite binding assay, GLP-1 receptor; conditions: for IC50: read-out: GLP-1 receptor IC 50
[2] = target: T2, GIP receptor (Homo sapiens, UniProt P48546); test: TagLite binding assay, GIP receptor; conditions: for IC50: read-out: GIP receptor IC 50
T2 sequence (P48546 22-466): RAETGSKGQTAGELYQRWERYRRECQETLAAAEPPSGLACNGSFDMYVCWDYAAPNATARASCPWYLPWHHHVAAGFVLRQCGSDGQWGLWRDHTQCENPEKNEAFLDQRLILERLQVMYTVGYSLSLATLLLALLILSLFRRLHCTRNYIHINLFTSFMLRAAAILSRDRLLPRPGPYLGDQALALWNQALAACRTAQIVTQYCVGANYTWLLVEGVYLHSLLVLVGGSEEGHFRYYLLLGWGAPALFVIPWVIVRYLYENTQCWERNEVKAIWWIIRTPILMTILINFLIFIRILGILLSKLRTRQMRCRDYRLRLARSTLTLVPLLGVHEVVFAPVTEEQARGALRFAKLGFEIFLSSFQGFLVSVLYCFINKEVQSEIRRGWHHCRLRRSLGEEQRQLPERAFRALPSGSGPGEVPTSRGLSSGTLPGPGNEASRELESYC

[3] = tested on: mice fed a Gubra amylin NASH (GAN) diet; test: Biological effects in GAN diet-induced NASH mice; format: in vivo; conditions: after two weeks; for Gal-3 Relative / Gal-3 Total: liver Galectin-3, histological quantitative assessment; for α-SMA Relative / α-SMA Total: liver alpha-smooth muscle actin, histological quantitative assessment; for TG Relative / TG Total: liver triglycerides
Experimental: NASH was induced in mice by feeding mice a Gubra amylin NASH (GAN) diet as described in Boland et al. World J Gastroenterol. 2019, 25(33): 4904-4920. One week prior to administration of a first dose of compounds, the mice were weighed and randomized, and their food intake was measured. Mice were randomly assigned to dosing groups, with twelve mice per group. […] Compound dose titration (nmol/kg): 0.6 (day 0), 1.2 (day 1), 2.4 (day 2), 4.8 (day 3), 4.8 (day 4), 12 (day 5), 30.0 (from day 6).
After two weeks, animals were sacrificed. Plasma enzymes (P-ALT (alanine aminotransferase) and P-AST (aspartate aminotransferase)), total plasma triglycerides, and total plasma cholesterol were measured, and terminal necropsy of each liver was carried out, determining relative liver weight as a percentage of body weight, assaying total liver biochemistry including total liver triglycerides, plasma insulin and total liver cholesterol, as well as histological evaluation of Galectin-3, and alpha-smooth muscle actin.

[4] = target: T1, GLP-1 receptor; test: HSA modulated binding assay, GLP-1 receptor; conditions: for GLP-1 receptor Ratio of HSA/No HSA: binding with 2% HSA to binding with 0% HSA
[5] = target: T2, GIP receptor; test: HSA modulated binding assay, GIP receptor; conditions: for GIP receptor Ratio of HSA/No HSA: binding with 2% HSA to binding with 0% HSA
[6] = Pharmacokinetic study of Compounds 4, 14, 15, 17 in monkeys; conditions: cynomolgus monkey, in vivo, sc, 0.2 mg/kg
Experimental: The formulations were administered to cynomolgus monkeys at a dose of 0.2 mg/kg. Plasma concentration versus time data was collected and pharmacokinetic values determined.

[7] = Stability study of Compound 4 formulations; format: physicochemical
[8] = GMP formulation, 2.5 mg/ml Compound 4, 0.94% propylene glycol, 0.36% phenol, 0.074% dibasic sodium phosphate, 0.005% polysorbate 80, initial
[9] = same formulation stored for one month at 25° C./60% R.H.

T1 sequence (P43220 24-463): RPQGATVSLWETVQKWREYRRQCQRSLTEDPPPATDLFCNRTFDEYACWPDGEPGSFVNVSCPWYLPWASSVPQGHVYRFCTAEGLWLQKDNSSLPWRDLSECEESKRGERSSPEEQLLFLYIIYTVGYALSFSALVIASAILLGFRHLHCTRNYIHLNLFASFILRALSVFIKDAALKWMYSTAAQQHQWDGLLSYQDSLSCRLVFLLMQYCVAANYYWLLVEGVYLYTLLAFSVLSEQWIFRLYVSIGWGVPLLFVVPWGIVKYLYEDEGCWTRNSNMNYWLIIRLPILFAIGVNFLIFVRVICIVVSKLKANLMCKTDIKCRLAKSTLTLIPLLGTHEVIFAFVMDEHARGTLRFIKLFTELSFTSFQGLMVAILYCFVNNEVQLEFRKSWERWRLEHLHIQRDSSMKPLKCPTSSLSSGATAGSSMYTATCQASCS

## CC[C@H](C)[C@H](NC(=O)[C@H](CC(C)C)NC(=O)[C@H](Cc1c[nH]c2ccccc12)NC(=O)[C@H](CCC(N)=O)NC(=O)[C@@H](NC(=O)[C@H](Cc1ccccc1)NC(=O)[C@H](C)NC(=O)[C@H](CCCCNC(=O)COCCOCCNC(=O)COCCOCCNC(=O)CC[C@H](NC(=O)CCCCCCCCCCCCCCCCCCC(=O)O)P(=O)(O)O)NC(=O)[C@H](CCC(N)=O)NC(=O)[C@H](C)NC(=O)[C@@H](NC(=O)[C@H](CCCCN)NC(=O)[C@H](CC(=O)O)NC(=O)[C@H](CC(C)C)NC(=O)C(C)(C)NC(=O)[C@@H](NC(=O)[C@H](CO)NC(=O)[C@H](Cc1ccc(O)cc1)NC(=O)[C@H](CC(=O)O)NC(=O)[C@H](CO)NC(=O)[C@@H](NC(=O)[C@H](Cc1ccccc1)NC(=O)[C@@H](NC(=O)CNC(=O)[C@H](CCC(=O)O)NC(=O)C(C)(C)NC(=O)[C@@H](N)Cc1ccc(O)cc1)[C@@H](C)O)[C@@H](C)O)[C@@H](C)CC)[C@@H](C)CC)C(C)C)C(=O)N[C@@H](C)C(=O)NCC(=O)NCC(=O)N1CCC[C@H]1C(=O)N[C@@H](CO)C(=O)N[C@@H](CO)C(=O)NCC(=O)N[C@@H](C)C(=O)N1CCC[C@H]1C(=O)N1CCC[C@H]1C(=O)N1CCC[C@H]1C(=O)N[C@@H](CO)C(N)=O [Compound 8]
[1]
  IC50: 288 nM
[2]
  IC50: 223 nM
[3]
  liver Galectin-3 compared to tirzepatide or vehicle (in words): lower relative and total liver Galectin-3 as compared to administration of tirzepatide or vehicle alone
  liver alpha-smooth muscle actin compared to tirzepatide (in words): lower relative and total liver alpha-smooth muscle actin as compared to administration of tirzepatide
  liver triglycerides compared to tirzepatide or vehicle (in words): lower relative and total liver triglycerides as compared to administration of tirzepatide or vehicle alone
  Gal-3 Relative: 5.8 ± 0.6 percent fractional area
  Gal-3 Total: 117 ± 12 mg
  α-SMA Relative: 4.3 ± 0.5 percent fractional area
  α-SMA Total: 83 ± 8 mg
  TG Relative: 40 ± 3 mg per/g liver
  TG Total: 75 ± 7 mg per/liver

## CC[C@H](C)[C@H](NC(=O)[C@H](CC(C)C)NC(=O)[C@H](Cc1c[nH]c2ccccc12)NC(=O)[C@H](CCC(N)=O)NC(=O)[C@@H](NC(=O)[C@H](Cc1ccccc1)NC(=O)[C@H](C)NC(=O)[C@H](CCCCNC(=O)COCCOCCNC(=O)COCCOCCNC(=O)CC[C@H](NC(=O)CCCCCCCCCCCCCCCCCCP(=O)(O)OCc1ccccc1)P(=O)(O)O)NC(=O)[C@H](CCC(N)=O)NC(=O)[C@H](C)NC(=O)[C@@H](NC(=O)[C@H](CCCCN)NC(=O)[C@H](CC(=O)O)NC(=O)[C@H](CC(C)C)NC(=O)C(C)(C)NC(=O)[C@@H](NC(=O)[C@H](CO)NC(=O)[C@H](Cc1ccc(O)cc1)NC(=O)[C@H](CC(=O)O)NC(=O)[C@H](CO)NC(=O)[C@@H](NC(=O)[C@H](Cc1ccccc1)NC(=O)[C@@H](NC(=O)CNC(=O)[C@H](CCC(=O)O)NC(=O)C(C)(C)NC(=O)[C@@H](N)Cc1ccc(O)cc1)[C@@H](C)O)[C@@H](C)O)[C@@H](C)CC)[C@@H](C)CC)C(C)C)C(=O)N[C@@H](C)C(=O)NCC(=O)NCC(=O)N1CCC[C@H]1C(=O)N[C@@H](CO)C(=O)N[C@@H](CO)C(=O)NCC(=O)N[C@@H](C)C(=O)N1CCC[C@H]1C(=O)N1CCC[C@H]1C(=O)N1CCC[C@H]1C(=O)N[C@@H](CO)C(N)=O [Compound 12]
[3]
  liver Galectin-3 compared to tirzepatide or vehicle (in words): lower relative and total liver Galectin-3 as compared to administration of tirzepatide or vehicle alone
  liver alpha-smooth muscle actin compared to tirzepatide (in words): lower relative and total liver alpha-smooth muscle actin as compared to administration of tirzepatide
  liver triglycerides compared to tirzepatide or vehicle (in words): lower relative and total liver triglycerides as compared to administration of tirzepatide or vehicle alone
  Gal-3 Relative: 5.7 ± 0.5 percent fractional area
  Gal-3 Total: 113 ± 10 mg
  α-SMA Relative: 4.4 ± 0.6 percent fractional area
  α-SMA Total: 84 ± 8 mg
  TG Relative: 35 ± 3 mg per/g liver
  TG Total: 63 ± 5 mg per/liver
[4]
  GLP-1 receptor Ratio of HSA/No HSA: 5.26
[5]
  GIP receptor Ratio of HSA/No HSA: 1.70

## CC[C@H](C)[C@H](NC(=O)[C@H](CC(C)C)NC(=O)[C@H](Cc1c[nH]c2ccccc12)NC(=O)[C@H](CCC(N)=O)NC(=O)[C@@H](NC(=O)[C@H](Cc1ccccc1)NC(=O)[C@H](C)NC(=O)[C@H](CCCCNC(=O)COCCOCCNC(=O)COCCOCCNC(=O)CC[C@H](NC(=O)CCCCCCCCCCCCCCCCCCP(=O)(O)O)C(=O)O)NC(=O)[C@H](CCC(N)=O)NC(=O)[C@H](C)NC(=O)[C@@H](NC(=O)[C@H](CCCCN)NC(=O)[C@H](CC(=O)O)NC(=O)[C@H](CC(C)C)NC(=O)C(C)(C)NC(=O)[C@@H](NC(=O)[C@H](CO)NC(=O)[C@H](Cc1ccc(O)cc1)NC(=O)[C@H](CC(=O)O)NC(=O)[C@H](CO)NC(=O)[C@@H](NC(=O)[C@H](Cc1ccccc1)NC(=O)[C@@H](NC(=O)CNC(=O)[C@H](CCC(=O)O)NC(=O)C(C)(C)NC(=O)[C@@H](N)Cc1ccc(O)cc1)[C@@H](C)O)[C@@H](C)O)[C@@H](C)CC)[C@@H](C)CC)C(C)C)C(=O)N[C@@H](C)C(=O)NCC(=O)NCC(=O)N1CCC[C@H]1C(=O)N[C@@H](CO)C(=O)N[C@@H](CO)C(=O)NCC(=O)N[C@@H](C)C(=O)N1CCC[C@H]1C(=O)N1CCC[C@H]1C(=O)N1CCC[C@H]1C(=O)N[C@@H](CO)C(N)=O [Compound 4]
[1]
  IC50: 105 nM
[2]
  IC50: 153 nM
[3]
  liver Galectin-3 compared to tirzepatide or vehicle (in words): lower relative and total liver Galectin-3 as compared to administration of tirzepatide or vehicle alone
  liver alpha-smooth muscle actin compared to tirzepatide (in words): lower relative and total liver alpha-smooth muscle actin as compared to administration of tirzepatide
  liver triglycerides compared to tirzepatide or vehicle (in words): lower relative and total liver triglycerides as compared to administration of tirzepatide or vehicle alone
  Gal-3 Relative: 6.3 ± 0.3 percent fractional area
  Gal-3 Total: 137 ± 15 mg
  α-SMA Relative: 4.8 ± 0.6 percent fractional area
  α-SMA Total: 102 ± 10 mg
  TG Relative: 37 ± 3 mg per/g liver
  TG Total: 70 ± 5 mg per/liver
[4]; 0% human serum albumin, read-out: GLP-1 receptor IC 50, 0% HSA
  IC50: 154 nM
[4]
  GLP-1 receptor Ratio of HSA/No HSA: 6.42
[4]; read-out: GLP-1 receptor IC 50, 2% HSA, 2% human serum albumin
  IC50: 988 nM
[5]; 0% human serum albumin, read-out: GIP receptor IC 50, 0% HSA
  IC50: 264 nM
[5]
  GIP receptor Ratio of HSA/No HSA: 1.25
[5]; read-out: GIP receptor IC 50, 2% HSA, 2% human serum albumin
  IC50: 331 nM
[6]
  AUC(0-inf): 321 µg·h/mL
  AUC(0-t): 309 µg·h/mL
  CL/F: 15.2 mL/day/kg
  Cmax: 1890 ng/mL
  Tmax: 20 h
  Vd/F: 0.095 L/kg
  half-life: 105 h
[7]; [8]
  Compound 4 assay, before storage: 103%
  total impurities, before storage: 0.57%
[7]; [9]
  Compound 4 assay, after storage: 102.4%
  total impurities, after storage: 0.76%

## tirzepatide [reference compound]
[1]
  GLP-1 receptor % Binding avg at CMax: 0.20%
[2]
  GIP receptor % Binding avg at CMax: −1.21%
[3]
  Gal-3 Total: 138 ± 17 mg
  α-SMA Total: 108 ± 22 mg
  TG Total: 80 ± 11 mg per/liver
[4]; 0% human serum albumin
  GLP-1 receptor % Binding avg at CMax, 0% HSA: −0.14%
[4]; 2% human serum albumin
  GLP-1 receptor % Binding avg at CMax, 2% HSA: 33.01%
[4]; inferred from the HSA ratios at GLP-1 and GIP receptors
  binding affinity for albumin (in words): greater than that of Compound 4 or of Compound 12
[5]; 0% human serum albumin
  GIP receptor % Binding avg at CMax, 0% HSA: −3.05%
[5]; 2% human serum albumin
  GIP receptor % Binding avg at CMax, 2% HSA: 10.07%
